# Experimental data published in patent US8853490B2 (priority 2010, dated 2014).
# Like-named read-outs stand apart in the source and are kept apart here.
# What was measured:
# [1] = test system: Diplodia maydis (DMA; isolate Warren-IN-96); assay type: cell-based
# [2] = test system: Colletotrichum graminicola (CGR; isolate Carroll-IA-99); assay type: cell-based
Substance,In vitro antifungal activity (IC50) against D. maydis (DMA) ([1]; high salt conditions) [ppm],In vitro antifungal activity (IC50) against D. maydis (DMA) ([1]; low salt conditions) [ppm],In vitro antifungal activity (IC50) against C. graminicola (CGR) ([2]; high salt conditions) [ppm],In vitro antifungal activity (IC50) against C. graminicola (CGR) ([2]; low salt conditions) [ppm]
LB-5220 (ps 1B4): LBNL variant generated through gene shuffling of the LB-5220 mature peptide coding sequence (LKYTGTCTRKNNQCKYRGQNNRDTFVKCPTFANKRCTRDGAPCSFDSYSRAVTCD; Synthetic peptide LB-5220 (ps-1B4)),12,0.1,,
LB-5220 (r2 5G7): LBNL variant generated through gene shuffling of the LB-5220 mature peptide coding sequence (LKYTGTCRRANNQCKYKGQNNRDTFVKCPTFANKKCTRDGAKCSFDSYSRAVTCD; Synthetic peptide LB-5220 (r2-5G7)),12,0.1,6,
LB-5220 (r2 6F2): LBNL variant generated through gene shuffling of the LB-5220 mature peptide coding sequence (LKYTGTCRRANNQCKYKGQNNRDTFVKCPTFANKKCTRDGEKCSFDSYSRAVTCD; LB-5220 (r2-6F2)),6,0.1,12,0.4
LB-9827-3A-11E4: LBNL variant generated through gene shuffling of the LB-9827-1 mature peptide coding sequence (LSKYGGECSRKHNTCTYKKGGKNQIVNCPTAANKRCKTDRHHCEYDEYHRRVDCQTPV; LB-9827-3A-11E4),0.94,,1.25,
LB-9827-3B-21E10: LBNL variant generated through gene shuffling of the LB-9827-1 mature peptide coding sequence (LSKYGGECSRAHNTCTYRKGGKNQVVNCPSAANKKCKSDRHHCEYDEYHKRVDCQTPV; Synthetic peptide LB-9827-3B-21E10),30,,1.25,
LB-9827-3B-25F2: LBNL variant generated through gene shuffling of the LB-9827-1 mature peptide coding sequence (LSKYGGECSREHNTCTYLKGGKNQVVACGSAANKKCKRDRHHCEYDDYHKTVDCQTPV; Synthetic peptide LB-9827-3B-25F2),7.5,,1.25,
LB-9827-3B-25G5: LBNL variant generated through gene shuffling of the LB-9827-1 mature peptide coding sequence (LSKYGGECSRAHNTCTYRKGGKNQVVKCGTAANKKCKSDRHHCEYDDYHKRVDCQTPV; Synthetic peptide LB-9827-3B-25G5),0.47,,1.25,
LB-9827-3B-26G11: LBNL variant generated through gene shuffling of the LB-9827-1 mature peptide coding sequence (LSKYGGECSKEHNTCKYLKGGKNQVVACPKAANKKCKTDRHHCEYDEYHKTVDCQTPV; Synthetic peptide LB-9827-3B-26G11),,,0.63,
